Results from US4468511A, “C-20- And C-23-Modified macrolide derivatives” (Eli Lilly and Company, priority 1983, dated 1984).
In brackets after ≈: the same amount, converted by molar mass. Read-outs that look alike come from different tables or passages of the source.

Experiments:
Mycoplasma synoviae = assay: MIC, conventional broth-dilution microtiter test; format: cell-based; settings: Mycoplasmopsis synoviae
Method in brief: (§1)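 Agar plates containing graded compound levels gave the Klebsiella value. Graded broth dilutions in microtiter plates gave the Pasteurella and Mycoplasma values.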

[1] = system: Pasteurella multocida 22A; assay: MIC, conventional broth-dilution microtiter test; format: cell-based; settings: Pasteurella multocida, 22A
Method in brief: (§2)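 MICs for the two Pasteurella strains and the Mycoplasma strain were read from a broth-dilution microtiter test. The Klebsiella strain was tested on agar instead.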

Streptococcus sp. 80 = assay: MIC, conventional broth-dilution microtiter test; format: cell-based; settings: Streptococcus, SP.80
Description: (§3) Certain of the derivatives are active against some gram-negative bacteria, such as Pasteurella species. The MIC's in Table II were determined by standard agar-dilution assays. The MIC's in Table III were obtained using a conventional broth-dilution microtiter test.

[2] = system: Pasteurella multocida 40G; assay: MIC, conventional broth-dilution microtiter test; format: cell-based; settings: Pasteurella multocida, 40G
Method in brief: as §2

[3] = system: Mycoplasma gallisepticum 41313; assay: MIC, conventional broth-dilution microtiter test; format: cell-based; settings: Mycoplasmoides gallisepticum, 41313
Method in brief: as §2

[4] = system: Pasteurella multocida 60A; assay: MIC, conventional broth-dilution microtiter test; format: cell-based; settings: Pasteurella multocida, 60A
Method in brief: as §2

[5] = system: Pasteurella multocida 68C; assay: MIC, conventional broth-dilution microtiter test; format: cell-based; settings: Pasteurella multocida, 68C
Method in brief: as §2

[6] = system: Pasteurella hemolytica 41D; assay: MIC, conventional broth-dilution microtiter test; format: cell-based; settings: Pasteurella, 41D
Method in brief: as §2

Mycoplasma gallisepticum = assay: MIC, conventional broth-dilution microtiter test; format: cell-based; settings: Mycoplasmoides gallisepticum
Method in brief: as §2

Mycoplasma hyorhinis = assay: MIC, conventional broth-dilution microtiter test; format: cell-based; settings: Mycoplasma
Method in brief: as §1

[7] = system: Pasteurella multocida 17E; assay: MIC, conventional broth-dilution microtiter test; format: cell-based; settings: Pasteurella multocida, 17E
Method in brief: as §2

[8] = system: Pasteurella hemolytica 23C; assay: MIC, conventional broth-dilution microtiter test; format: cell-based; settings: Pasteurella, 23C
Method in brief: as §2

[9] = system: Pasteurella hemolytica 22C; assay: MIC, conventional broth-dilution microtiter test; format: cell-based; settings: Pasteurella, 22C
Method in brief: as §2

[10] = system: Mycoplasma gallisepticum 34159; assay: MIC, conventional broth-dilution microtiter test; format: cell-based; settings: Mycoplasmoides gallisepticum, 34159
Method in brief: as §2

Staphylococcus aureus = assay: MIC, conventional broth-dilution microtiter test; format: cell-based
Description: as §3

[11] = system: Streptococcus pyogenes C203; assay: Protection of mice experimentally infected with S. pyogenes C203; format: in vivo;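 further: two doses given 1 and 4 hours after infection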
Description: Some of the derivatives of this invention have shown in vivo antimicrobial activity against experimentally-induced infections in laboratory animals. When two doses of test compound were administered to mice experimentally infected with S. pyogenes C203, the activity observed was measured as an ED50 value [effective dose in mg/kg to protect 50% of the test animals: see Warren Wick, et al., J. Bacteriol. 81, 233-235 (1961)].

[12] = system: Streptococcus pyogenes C203; assay: MIC, standard agar-dilution assay; format: cell-based; settings: Streptococcus pyogenes, C203
Description: as §3

[13] = system: Streptococcus pyogenes 9960; assay: MIC, standard agar-dilution assay; format: cell-based; settings: 9960
Description: as §3

[14] = system: Streptococcus pneumoniae Park I; assay: MIC, standard agar-dilution assay; format: cell-based; settings: Streptococcus pneumoniae
Description: as §3

[15] = system: Staphylococcus aureus X1.1; assay: MIC, standard agar-dilution assay; format: cell-based; settings: Staphylococcus aureus, X1.1
Method in brief: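 A standard agar-dilution assay was used to test compounds against the Staphylococcus aureus isolate X1.1. Bacterial growth on agar with different compound concentrations was assessed, and the minimum inhibitory concentration was recorded in ug/mL.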

[16] = system: Streptococcus Group D X66; assay: MIC, standard agar-dilution assay; format: cell-based
Description: as §3

[17] = system: Staphylococcus aureus V41; assay: MIC, standard agar-dilution assay; format: cell-based; settings: Staphylococcus aureus, V41
Description: as §3

Escherichia coli EC14 = assay: MIC, standard agar-dilution assay; format: cell-based; settings: Escherichia coli, EC14
Description: as §3

[18] = system: Klebsiella pneumoniae KAE; assay: MIC, standard agar-dilution assay; format: cell-based; settings: Klebsiella pneumoniae
Method in brief: as §2

[19] = system: Klebsiella pneumoniae X26; assay: MIC, standard agar-dilution assay; format: cell-based; settings: Klebsiella pneumoniae, X26
Method in brief: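 Method depends on organism. Klebsiella pneumoniae was assayed on agar. Pasteurella spp. and Mycoplasma gallisepticum were assayed in broth microtiter dilution.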

Escherichia coli TEM = assay: MIC, standard agar-dilution assay; format: cell-based; settings: Escherichia coli
Method in brief: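 Antibacterial activity toward the gram-negative organism Escherichia coli was assessed by conventional agar dilution. The MIC, reported in ug/mL, is the minimum compound concentration on agar that prevents growth.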

[20] = system: Haemophilus influenzae C.L.; assay: MIC, standard agar-dilution assay; format: cell-based; settings: Haemophilus influenzae
Description: (§4) The MIC's in Table II were determined by standard agar-dilution assays. The MIC's in Table III were obtained using a conventional broth-dilution microtiter test.

[21] = system: Staphylococcus epidermidis EPI2; assay: MIC, standard agar-dilution assay; format: cell-based; settings: Staphylococcus epidermidis, EPI2
Description: as §4

[22] = system: Haemophilus influenzae 76; assay: MIC, standard agar-dilution assay; format: cell-based; settings: Haemophilus influenzae, 76
Description: as §4

[23] = system: Staphylococcus aureus X400; assay: MIC, standard agar-dilution assay; format: cell-based; settings: Staphylococcus aureus, X400
Description: as §4

[24] = system: Staphylococcus aureus S13E; assay: microbe, parasite or virus in culture; format: cell-based
Description: as §4

[25] = system: Staphylococcus epidermidis EPI1; assay: microbe, parasite or virus in culture; format: cell-based; settings: Staphylococcus epidermidis, EPI1
Description: as §4

Pasteurella multocida = assay: Pasteurella infection in one-day old chicks; format: in vivo; settings: subcutaneous, 30 mg/kg × 2, 1 and 4 hours post-challenge
Description: Certain of the formula 1 compounds of this invention have also shown in vivo activity against infections induced by gram-negative bacteria. Table V summarizes the results of tests in which illustrative compounds were evaluated against a Pasteurella infection in one-day old chicks. The compounds were administered parenterally after challenge of the chicks with Pasteurella multocida (0.1 ml of a 10^-4 dilution of a twenty-hour tryptose broth culture of an avian P. multocida given subcutaneously). In these tests, unless indicated otherwise, all non-medicated infected chicks died within 24 hours of Pasteurella challenge. In the tests summarized in Table V, the compounds were administered by subcutaneous injection at a dosage of 30 mg/kg, 1 and 4 hours post-challenge of the chicks with P. multocida.

Q: For `CCC1OC(=O)CC(O)C(C)C(OC2OC(C)C(O)C(N(C)C)C2O)C(CCOC(=O)Cc2ccccc2)CC(C)C(=O)C=CC(C)=CC1CO` (stereo not shown) [Compound 1, 20-O-Phenylacetyl-20-dihydro-OMT], which MIC (Mycoplasma synoviae) is on record?
A: 50 µg/mL (≈ 69.6 µM)

Q: What about the MIC [1] of the same compound?
A: 25 µg/mL (≈ 34.8 µM)

Q: What about the MIC (Streptococcus sp. 80) of the same compound?
A: 3.12 µg/mL (≈ 4.35 µM)

Q: And the MIC [2]?
A: 25 µg/mL (≈ 34.8 µM)

Q: And the MIC [3]?
A: 50 µg/mL (≈ 69.6 µM)

Q: What about the MIC [4] of the same compound?
A: 25 µg/mL (≈ 34.8 µM)

Q: What about the MIC [5] of the same compound?
A: 6.25 µg/mL (≈ 8.71 µM)

Q: And the MIC [6]?
A: 12.5 µg/mL (≈ 17.4 µM)

Q: And the MIC (Mycoplasma gallisepticum)?
A: 3.12 µg/mL (≈ 4.35 µM)

Q: And the MIC (Mycoplasma hyorhinis)?
A: > 50 µg/mL

Q: What about the MIC [7] of the same compound?
A: 12.5 µg/mL (≈ 17.4 µM)

Q: What about the MIC [8] of the same compound?
A: 12.5 µg/mL (≈ 17.4 µM)

Q: What about the MIC [9] of the same compound?
A: 25 µg/mL (≈ 34.8 µM)

Q: And the MIC [10]?
A: 6.25 µg/mL (≈ 8.71 µM)

Q: What about the MIC (Staphylococcus aureus) of the same compound?
A: 3.12 µg/mL (≈ 4.35 µM)

Q: And the ED50 ([11]; C203, po, read-out: ED50 Oral)?
A: > 100 mg/kg

Q: What about the ED50 ([11]; C203, sc, read-out: ED50 Subcutaneous) of the same compound?
A: > 30 mg/kg

Q: What about the MIC [12] of the same compound?
A: 1 µg/mL (≈ 1.39 µM)

Q: What about the MIC [13] of the same compound?
A: 2 µg/mL (≈ 2.79 µM)

Q: And the MIC [14]?
A: 0.5 µg/mL (≈ 0.696 µM)

Q: And the MIC [15]?
A: 1 µg/mL (≈ 1.39 µM)

Q: And the MIC [16]?
A: 2 µg/mL (≈ 2.79 µM)

Q: And the MIC [17]?
A: 1 µg/mL (≈ 1.39 µM)

Q: What about the MIC (Escherichia coli EC14) of the same compound?
A: 64 µg/mL (≈ 89.1 µM)

Q: And the MIC [18]?
A: > 128 µg/mL

Q: And the MIC [19]?
A: 4 µg/mL (≈ 5.57 µM)

Q: And the MIC (Escherichia coli TEM)?
A: 16 µg/mL (≈ 22.3 µM)

Q: What about the MIC [20] of the same compound?
A: 16 µg/mL (≈ 22.3 µM)

Q: And the MIC [21]?
A: 1 µg/mL (≈ 1.39 µM)

Q: And the MIC [22]?
A: 16 µg/mL (≈ 22.3 µM)

Q: And the MIC [23]?
A: 2 µg/mL (≈ 2.79 µM)

Q: What about the MIC [24] of the same compound?
A: 1 µg/mL (≈ 1.39 µM)

Q: What about the MIC [25] of the same compound?
A: 0.5 µg/mL (≈ 0.696 µM)

Q: What about the “Number of Deaths/Number Treated” value (Pasteurella multocida) of the same compound?
A: 9/10
